The source of these data is US20120165304A1, “6,7,8,9-Tetrahydro-5H-1,4,7,10a-tetraaza-cyclohept[f]indene derivatives, pharmaceutical compositions containing these compounds, their use and processes for preparing them” (BOEHRINGER INGELHEIM INTERNATIONAL GMBH, priority 2008, published 2012).

The structures appear in SMILES notation. pEC50: −log10 of the molar value.

human 5-HT2C receptor, sequence (P28335 33-458 I156V/N158S/I160V limits assumed): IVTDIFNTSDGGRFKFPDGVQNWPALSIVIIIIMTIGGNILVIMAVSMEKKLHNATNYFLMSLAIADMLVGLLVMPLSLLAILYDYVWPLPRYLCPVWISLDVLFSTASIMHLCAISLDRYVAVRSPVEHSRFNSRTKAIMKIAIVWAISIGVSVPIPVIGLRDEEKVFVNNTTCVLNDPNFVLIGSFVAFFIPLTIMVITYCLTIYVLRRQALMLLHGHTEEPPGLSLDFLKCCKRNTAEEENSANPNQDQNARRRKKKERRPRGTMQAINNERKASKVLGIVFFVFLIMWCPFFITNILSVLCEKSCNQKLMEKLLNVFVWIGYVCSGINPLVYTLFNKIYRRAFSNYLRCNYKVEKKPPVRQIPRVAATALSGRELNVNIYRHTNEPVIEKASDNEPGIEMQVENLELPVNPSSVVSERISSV

This test has as its target human 5-HT2C receptor (Homo sapiens, UniProt P28335, I156V/I160V/N158S). Kind of test: cell-based.
Usually pEC50 stands for the EC50 on a negative log10 scale, so that one unit is a factor of ten. Higher therefore signals a low EC50. On to `CC1(C)CCCN(C(=O)C2CN(c3c4c(nc5ccnn35)CCNCC4)C2)C1` [Example 31.30], for which the negative logarithm of the EC50 (pEC50) was 6.47.

With `Cc1cnn2c(N3CC(C(=O)N4CCc5c(cccc5C(F)(F)F)C4)C3)c3c(nc12)CCNCC3` [Example 31.239], the pEC50 was 7.10.

`CN1CCc2nc3ccnn3c(N3CC(C(=O)N4CCC(N(C)C)CC4)C3)c2CC1` [Example 36.5] had a pEC50 of 7.29.

As to `O=C(C1CN(c2c3c(nc4ccnn24)CCNCC3)C1)N1CCC2CC2(c2ccccc2)C1` (stereo not drawn) [Example 31.233], the pEC50 is 6.97. Compared with the last compound, the pEC50 is 0.32 log units lower.

On to `O=C(C1CN(c2c3c(nc4ccnn24)CCNCC3)C1)N1CCc2cc(F)ccc21` [Example 31.217], for which the pEC50 was 7.25.

For the compound `O=C(C1CN(c2c3c(nc4ccnn24)CCNCC3)C1)N1CCN(C2CC2)CC1` [Example 37.32], the negative-log EC50 (pEC50) was 7.66.

In turn, `O=C(C1CN(c2c3c(nc4ccnn24)CCNCC3)C1)N1CCOC(c2ccccc2)C1` (stereo not drawn) [Example 31.8] showed a negative-log EC50 (pEC50) of 7.03.

As for `N#Cc1cccc(OC2CN(c3c4c(nc5ccnn35)CCNCC4)C2)c1` [Example 35.4], the pEC50 was 7.09.

`c1ccc(OCC2CN(c3c4c(nc5ccnn35)CCNCC4)C2)nc1` [Example 15.28] gave a pEC50 of 7.62.

`O=C(C1CN(c2c3c(nc4ccnn24)CCNCC3)C1)N1CCC(Oc2ccccn2)CC1` [Example 31.230] gave a negative-log EC50 (pEC50) of 7.27.

In turn, `O=C(C1CN(c2c3c(nc4ccnn24)CCNCC3)C1)N1CCC(c2cccc(F)c2)C1` (stereo not drawn) [Example 31.118] had a negative-log EC50 (pEC50) of 7.96.

`O=C(C1CN(c2c3c(nc4ccnn24)CCNCC3)C1)N1CCC(c2ccc(Br)cc2)CC1` [Example 31.112] showed a negative-log EC50 (pEC50) of 6.88.

`C#CC1CCN(C(=O)C2CN(c3c4c(nc5ccnn35)CCNCC4)C2)C1` (stereo not drawn) [Example 38, (3-Ethynyl-pyrrolidin-1-yl)-[1-(6,7,8,9-tetrahydro-5H-1,4,7,10a-tetraaza-cyclohepta[f]inden-10-yl)-azetidin-3-yl]-methanone] gave a negative logarithm of the EC50 (pEC50) of 8.22.

`O=C(NC1CCOC1)C1CN(c2c3c(nc4ccnn24)CCNCC3)C1` (stereo not drawn) [Example 37.67] showed a pEC50 of 7.17.

`COc1ccc(C)cc1OCC1CN(c2c3c(nc4ccnn24)CCNCC3)C1` [Example 15.7] gave a pEC50 of 7.92.
